Assay results from ChEMBL document CHEMBL4196106, “From Naproxen Repurposing to Naproxen Analogues and Their Antiviral Activity against Influenza A Virus” (J Med Chem, 2018).

Columns and labels:
[1] = system: Influenza A virus; experiment: Antiviral activity against oseltamivir-resistant Influenza A virus (A/Puerto Rico/8/1934(H1N1)) infected in MDCK cells at MOI of 10^-3 assessed as decrease in viral load after 18 hrs by immunofluorescence analysis; format: functional, organism-based
[2] = Selectivity index, ratio of CC50 for MDCK cells to IC50 for oseltamivir-resistant Influenza A virus (A/Puerto Rico/8/1934(H1N1)) infected in MDCK cells at MOI of 10^-3 after 18 hrs; format: toxicity, cell-based; conditions: dog, read-out: Ratio CC50/IC50

Row | SMILES | IC50 [1] [µM] | selectivity ratio at 18 h [2]
1 | COc1ccc2cc(-c3c(C(=O)[O-])ccc(Oc4ccc(N)cc4)c3C(=O)[O-])ccc2c1.[Na+].[Na+] | 1 | 12000
2 | COc1ccc2cc(-c3c(C(=O)[O-])cccc3C(=O)[O-])ccc2c1.[Na+].[Na+] | 8.8 | 1480
3 | COc1ccc2cc(-c3c(C(=O)O)cc(Oc4ccc(N)cc4)cc3C(=O)O)ccc2c1 | 8 | 1620
